Assay results reported in ChEMBL document CHEMBL5584294, “Adpressins A-G: Oligophenalenone Dimers from Talaromyces adpressus” (J Nat Prod, 2024).

Key:
T-cell [1] = experiment: Immunosuppressive activity in BALB/c mouse T-lymphocytes assessed as inhibition of ConA-induced cell proliferation pretreated with Concanavalin A for 24 hrs followed by compound addition and measured after 48 hrs by CCK-8 assay; type: functional, cell-based
B-cell line = experiment: Immunosuppressive activity in BALB/c mouse B-lymphocytes assessed as inhibition of LPS-induced cell proliferation pretreated with LPS for 24 hrs followed by compound addition and measured after 48 hrs by CCK-8 assay; type: functional, cell-based
T-cell [2] = experiment: (§1) Immunosuppressive activity in BALB/c mouse T-lymphocytes assessed as reduction in ConA-induced CD8 subpopulation by measuring CD3positiveCD8negative cells at 2.5 uM pretreated with Concanavalin A for 24 hrs followed by compound addition and measured after 48 hrs by flow cytometry analysis (reference value: 70.9%); type: functional; set-up: scale not given: the % may be the effect or the level left
T-cell [3] = experiment: as §1, with “CD4” for “CD8”, “CD3positiveCD4positive” for “CD3positiveCD8negative”, “5” for “2.5”, “87.8%)” for “70.9%)”; type: functional; set-up: scale not given: the % may be the effect or the level left
T-cell [4] = experiment: (§2) Immunosuppressive activity in ConA-induced BALB/c mouse T-lymphocytes assessed as Treg cell subsets by measuring CD25positiveFOXP3negative cells at 2.5 uM pretreated with Concanavalin A for 24 hrs followed by compound addition and measured after 48 hrs by flow cytometry analysis (reference value: 66.9%); type: functional
T-cell [5] = experiment: as §1, with “CD4” for “CD8”, “CD3negativeCD4positive” for “CD3positiveCD8negative”, “5” for “2.5”, “0%)” for “70.9%)”; type: functional; set-up: scale not given: the % may be the effect or the level left
T-cell [6] = experiment: as §1, with “CD3negativeCD8negative” for “CD3positiveCD8negative”, “0%)” for “70.9%)”; type: functional; set-up: scale not given: the % may be the effect or the level left
T-cell [7] = experiment: as §1, with “CD3positiveCD8positive” for “CD3positiveCD8negative”, “29.1%)” for “70.9%)”; type: functional; set-up: scale not given: the % may be the effect or the level left
T-cell [8] = experiment: as §2, with “CD25negativeFOXP3negative” for “CD25positiveFOXP3negative”, “27.2%)” for “66.9%)”; type: functional
T-cell [9] = experiment: as §1, with “CD3positiveCD8positive” for “CD3positiveCD8negative”, “5” for “2.5”, “29.1%)” for “70.9%)”; type: functional; set-up: scale not given: the % may be the effect or the level left
T-cell [10] = experiment: as §1, with “CD4” for “CD8”, “CD3negativeCD4positive” for “CD3positiveCD8negative”, “0%)” for “70.9%)”; type: functional; set-up: scale not given: the % may be the effect or the level left
T-cell [11] = experiment: as §1, with “CD4” for “CD8”, “CD3positiveCD4negative” for “CD3positiveCD8negative”, “5” for “2.5”, “12.2%)” for “70.9%)”; type: functional; set-up: scale not given: the % may be the effect or the level left
T-cell [12] = experiment: as §2, with “CD25negativeFOXP3negative” for “CD25positiveFOXP3negative”, “5” for “2.5”, “27.2%)” for “66.9%)”; type: functional
T-cell [13] = experiment: as §1, with “CD4” for “CD8”, “CD3negativeCD4negative” for “CD3positiveCD8negative”, “0%)” for “70.9%)”; type: functional; set-up: scale not given: the % may be the effect or the level left
T-cell [14] = experiment: as §2, with “CD25positiveFOXP3positive” for “CD25positiveFOXP3negative”, “5.7%)” for “66.9%)”; type: functional
T-cell [15] = experiment: as §2, with “CD25negativeFOXP3positive” for “CD25positiveFOXP3negative”, “0.2%)” for “66.9%)”; type: functional
T-cell [16] = experiment: as §1, with “CD4” for “CD8”, “CD3positiveCD4negative” for “CD3positiveCD8negative”, “12.2%)” for “70.9%)”; type: functional; set-up: scale not given: the % may be the effect or the level left
T-cell [17] = experiment: as §1, with “CD4” for “CD8”, “CD3positiveCD4positive” for “CD3positiveCD8negative”, “87.8%)” for “70.9%)”; type: functional; set-up: scale not given: the % may be the effect or the level left
T-cell [18] = experiment: as §1, with “CD3negativeCD8positive” for “CD3positiveCD8negative”, “5” for “2.5”, “0%)” for “70.9%)”; type: functional; set-up: scale not given: the % may be the effect or the level left
T-cell [19] = experiment: as §2, with “CD25positiveFOXP3positive” for “CD25positiveFOXP3negative”, “5” for “2.5”, “5.7%)” for “66.9%)”; type: functional
T-cell [20] = experiment: as §1, with “CD3negativeCD8positive” for “CD3positiveCD8negative”, “0%)” for “70.9%)”; type: functional; set-up: scale not given: the % may be the effect or the level left
T-cell [21] = experiment: as §2, with “CD25negativeFOXP3positive” for “CD25positiveFOXP3negative”, “5” for “2.5”, “0.2%)” for “66.9%)”; type: functional
T-cell [22] = experiment: as §1, with “CD3negativeCD8negative” for “CD3positiveCD8negative”, “5” for “2.5”, “0%)” for “70.9%)”; type: functional; set-up: scale not given: the % may be the effect or the level left
T-cell [23] = experiment: as §1, with “5” for “2.5”; type: functional; set-up: scale not given: the % may be the effect or the level left
T-cell [24] = experiment: as §2, with “5” for “2.5”; type: functional
T-cell [25] = experiment: as §1, with “CD4” for “CD8”, “CD3negativeCD4negative” for “CD3positiveCD8negative”, “5” for “2.5”, “0%)” for “70.9%)”; type: functional; set-up: scale not given: the % may be the effect or the level left

## Cc1cc(O)c2c3c1C(=O)[C@@H]1c4c(c(O)c5c6c(c(O)cc(C)c46)C(=O)OC5)[C@@]3(COC2=O)[C@H]1O
T-cell [1]
  IC50: > 40 µM
B-cell line
  IC50: > 40 µM

## Cc1cc(O)c2c3c1C(=O)[C@@H]1C4=C(C(=O)c5cn(CCO)c(=O)c6c(O)cc(C)c4c56)[C@@]3(COC2=O)[C@H]1O
T-cell [1]
  IC50: > 40 µM
B-cell line
  IC50: > 40 µM

## CC(=O)O[C@H]1[C@@H]2C(=O)c3c(C)cc(O)c4c3[C@@]1(COC4=O)c1c(O)c3c4c(c(O)cc(C)c4c12)C(=O)O3
T-cell [1]
  IC50: > 40 µM
B-cell line
  IC50: > 40 µM

## Cc1cc(O)c2c3c1C(=O)[C@@H]1c4c(c(O)c5c6c(c(O)cc(C)c46)C(=O)OC5=O)[C@@]3(COC2=O)[C@H]1O
T-cell [1]
  IC50: > 40 µM
B-cell line
  IC50: > 40 µM

## Cc1cc(O)c2c3c1C(=O)[C@@H]1c4c(c(O)cc5cc(O)cc(C)c45)[C@@]3(COC2=O)[C@H]1O
T-cell [1]
  IC50: > 40 µM
B-cell line
  IC50: > 40 µM

## COC(=O)C[C@H]1OC(=O)c2c(O)cc(C)c3c2C1=C(O)C1[C@]24COC(=O)c5c(O)cc(C)c(c52)C(=O)[C@@H]([C@@H]4OC(C)=O)[C@]31OC (some centres not stated)
T-cell [1]
  IC50: > 40 µM
B-cell line
  IC50: > 40 µM

## COC(=O)CCCn1cc2c3c(c(C)cc(O)c3c1=O)C1=C(C2=O)[C@]23COC(=O)c4c(O)cc(C)c(c42)C(=O)[C@H]1[C@@H]3OC(C)=O
T-cell [2]
  Activity: 68.6%
T-cell [3]
  Activity: 22.3%
T-cell [4]
  Activity: 78.3%
T-cell [5]
  Activity: 77.7%
T-cell [6]
  Activity: 0%
T-cell [7]
  Activity: 31.4%
T-cell [8]
  Activity: 18.1%
T-cell [9]
  Activity: 30.1%
T-cell [10]
  Activity: 0%
T-cell [11]
  Activity: 0%
T-cell [12]
  Activity: 20.8%
T-cell [1]
  IC50: 2.6 µM
T-cell [13]
  Activity: 0%
T-cell [14]
  Activity: 3.5%
T-cell [15]
  Activity: 0.1%
T-cell [16]
  Activity: 16.8%
T-cell [17]
  Activity: 83.2%
T-cell [18]
  Activity: 0%
T-cell [19]
  Activity: 3.3%
T-cell [20]
  Activity: 0%
T-cell [21]
  Activity: 0.4%
T-cell [22]
  Activity: 0%
B-cell line
  IC50: 1.6 µM
T-cell [23]
  Activity: 69.9%
T-cell [24]
  Activity: 75.4%
T-cell [25]
  Activity: 0%

## Cc1cc(O)c2c3c1C(=O)[C@@H]1c4c(c(O)c5c6c(c(O)cc(C)c46)C(=O)O5)[C@@]3(COC2=O)[C@H]1O
T-cell [1]
  IC50: > 40 µM
B-cell line
  IC50: > 40 µM

## COC(=O)C[C@@H]1OC(=O)c2c(O)cc(C)c3c4c(c(O)c1c23)[C@]12COC(=O)c3c(O)cc(C)c(c31)C(=O)[C@H]4[C@@H]2O
T-cell [1]
  IC50: > 40 µM
B-cell line
  IC50: > 40 µM
